Structures are written as SMILES.

The test system of experiment [1] is Rattus norvegicus. Description: Ratio of sodium ion/potassium ion concentration in treated rats to that in control rats, at a peroral dose of 1.6 mg/Kg. Format: functional.
Experiment [2] has as its system Rattus norvegicus. The experiment can be described thus: Ratio of urinary excretion value (Na+ concentration) in treated rats to that in control rats, at a peroral dose of 0.4 mg/Kg. The experiment is classed as functional, Urine.
Experiment [3] has as its system Rattus norvegicus. The experiment can be described thus: Urea nitrogen concentration measured after intraperitoneal administration of 1 mg/kg of compound to rats(vehicle 182.5+/-3.4). Format: functional.
Experiment [4] relates to Rattus norvegicus. The experiment can be described thus: Percent inhibition of Urea nitrogen by the compound given as ratio of UN value in treated to vehicle treated ones after intraperitoneal administration of 1 mg/kg of compound to rats(vehicle 182.5+/-3.4). To be noted: ip. The experiment is classed as functional.
The subject of experiment [5] is Rattus norvegicus. The experiment can be described thus: Percent inhibition of serum creatinine by the compound given as ratio of Cr value in treated to vehicle treated ones after intraperitoneal administration of 1 mg/kg of compound to rats(vehicle 5.43+/-0.11). The experiment is classed as functional. To be noted: ip.
Experiment [6] deals with Rattus norvegicus. Description: Effect on urinary excretion potassium and sodium after oral administration of 1.6 mg/kg to rats(potassium and sodium excretion in control rat is 0.122+/-0.008). The experiment is classed as functional, Urine.
Experiment [7] relates to Rattus norvegicus. The experiment can be described thus: Effect on urinary excretion potassium and sodium after oral administration of 0.4 mg/kg to rats(potassium and sodium excretion in control rat is 0.175+/-0.014). The experiment is classed as functional, Urine.
The test system of experiment [8] is Rattus norvegicus. The experiment can be described thus: Ratio of urinary excretion value (urinary volume) in treated rats to that in control rats, at a peroral dose of 25 mg/Kg. Format: functional, Urine.
In a further experiment the target is Adenosine A2 receptor (Rattus norvegicus, UniProt P29276+P30543).
Experiment [9] deals with Rattus norvegicus. Description: Oral diuretic activity was measured after oral administration of 0.4 mg/kg to rats(control volume is 0.94+/-0.03). The experiment is classed as functional, Urine.
The test system of experiment [10] is Rattus norvegicus. The experiment can be described thus: Serum creatinine concentration measured after intraperitoneal administration of 1 mg/kg of compound to rats(vehicle 5.43+/-0.11). Format: functional.
In experiment [11] the test system is Rattus norvegicus. The experiment can be described thus: Oral diuretic activity was measured after oral administration of 25 mg/kg to rats(control volume is […]+/-[…]). The experiment is classed as functional, Urine.
Experiment [12] addresses T1, Adenosine receptor A1 (Rattus norvegicus, UniProt P25099).
T1 sequence (P25099 whole entry): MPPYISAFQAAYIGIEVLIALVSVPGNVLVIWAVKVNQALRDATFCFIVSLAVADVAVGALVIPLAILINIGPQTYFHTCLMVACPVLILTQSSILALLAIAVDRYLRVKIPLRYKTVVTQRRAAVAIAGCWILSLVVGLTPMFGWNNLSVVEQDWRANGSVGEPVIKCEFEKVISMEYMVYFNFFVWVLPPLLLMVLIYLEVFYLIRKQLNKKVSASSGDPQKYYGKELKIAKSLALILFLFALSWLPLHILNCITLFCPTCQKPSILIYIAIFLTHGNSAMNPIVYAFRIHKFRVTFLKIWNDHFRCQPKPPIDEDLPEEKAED
Description: Binding affinity towards adenosine A1 receptor in rat forebrain membranes using N6-[3H]cyclohexyladenosine

In experiment [13] the test system is Rattus norvegicus. The experiment can be described thus: Ratio of sodium ion/potassium ion concentration in treated rats to that in control rats, at a peroral dose of 0.4 mg/Kg. The experiment is classed as functional.
For experiment [14], the system named is Rattus norvegicus. Description: Ratio of urinary excretion value (urinary volume) in treated rats to that in control rats, at a peroral dose of 6.25 mg/Kg. Format: functional, Urine.
The subject of experiment [15] is Rattus norvegicus. The experiment can be described thus: Effect on urinary excretion potassium and sodium after oral administration of 25 mg/kg to rats(potassium and sodium excretion in control rat is […]+/-[…]). The experiment is classed as functional, Urine.
The test system of experiment [16] is Rattus norvegicus. Description: Oral diuretic activity was measured after oral administration of 1.6 mg/kg to rats(control volume is 0.83+/-0.07). The experiment is classed as functional, Urine.
Experiment [17] relates to Rattus norvegicus. Description: Ratio of sodium ion/potassium ion concentration in treated rats to that in control rats, at a peroral dose of 25 mg/Kg. Format: functional.
Experiment [18] has as its system Rattus norvegicus. The experiment can be described thus: Ratio of urinary excretion value (Na+ concentration) in treated rats to that in control rats, at a peroral dose of 6.25 mg/Kg. The experiment is classed as functional, Urine.
The subject of experiment [19] is Rattus norvegicus. The experiment can be described thus: Ratio of urinary excretion value (Na+ concentration) in treated rats to that in control rats, at a peroral dose of 1.6 mg/Kg. Format: functional, Urine.
Experiment [20] concerns Rattus norvegicus. The experiment can be described thus: Ratio of urinary excretion value (urinary volume) in treated rats to that in control rats, at a peroral dose of 0.4 mg/Kg. The experiment is classed as functional, Urine.
Experiment [21] deals with Rattus norvegicus. Description: Ratio of urinary excretion value (Na+ concentration) in treated rats to that in control rats, at a peroral dose of 25 mg/Kg. The experiment is classed as functional, Urine.
In experiment [22] the test system is Rattus norvegicus. The experiment can be described thus: Ratio of urinary excretion value (urinary volume) in treated rats to that in control rats, at a peroral dose of 1.6 mg/Kg. Format: functional, Urine.
For experiment [23], the system named is Rattus norvegicus. Description: Urea nitrogen concentration measured after intraperitoneal administration of 1 mg/kg of compound to rats(vehicle 147.9+/-6.1). The experiment is classed as functional.
Experiment [24] deals with T2, Adenosine receptor A1 (Cavia porcellus, UniProt P47745).
T2 sequence (P47745 whole entry): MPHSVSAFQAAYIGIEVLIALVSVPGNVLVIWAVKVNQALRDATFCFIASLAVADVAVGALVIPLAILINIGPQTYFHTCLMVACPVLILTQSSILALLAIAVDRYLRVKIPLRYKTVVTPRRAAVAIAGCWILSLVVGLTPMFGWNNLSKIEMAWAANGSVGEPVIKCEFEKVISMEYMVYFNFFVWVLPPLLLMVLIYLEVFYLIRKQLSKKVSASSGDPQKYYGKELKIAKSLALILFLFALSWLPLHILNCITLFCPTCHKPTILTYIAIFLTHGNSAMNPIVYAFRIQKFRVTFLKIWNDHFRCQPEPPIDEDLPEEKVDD
Description: Binding affinity against adenosine A1 receptor in guinea pig forebrain membranes using N6-[3H]cyclohexyladenosine as radioligand

Experiment [25] has as its system Rattus norvegicus. The experiment can be described thus: Percent inhibition of serum creatinine by the compound given as ratio of Cr value in treated to vehicle treated ones after intraperitoneal administration of 1 mg/kg of compound to rats(vehicle 4.41+/-0.17). The experiment is classed as functional. To be noted: ip.
The test system of experiment [26] is Rattus norvegicus. The experiment can be described thus: Effect on urinary excretion potassium and sodium after oral administration of 0.4 mg/kg to rats(potassium and sodium excretion in control rat is 0.261+/-0.0087). The experiment is classed as functional, Urine.
The test system of experiment [27] is Rattus norvegicus. The experiment can be described thus: Percent inhibition of Urea nitrogen by the compound given as ratio of UN value in treated to vehicle treated ones after intraperitoneal administration of 1 mg/kg of compound to rats(vehicle 147.9+/-6.1). Format: functional. To be noted: ip.
For experiment [28], the system named is Rattus norvegicus. The experiment can be described thus: Serum creatinine concentration measured after intraperitoneal administration of 1 mg/kg of compound to rats(vehicle 4.41+/-0.17). Format: functional.
Experiment [29] concerns Rattus norvegicus. The experiment can be described thus: Oral diuretic activity was measured after oral administration of 0.4 mg/kg to rats(control volume is […]+/-[…]). The experiment is classed as functional, Urine.
The test system of experiment [30] is Rattus norvegicus. Description: Effect on urinary excretion potassium and sodium after oral administration of 25 mg/kg to rats(potassium and sodium excretion in control rat is 0.252+/-0.022). The experiment is classed as functional, Urine.

A word on the inhibition in vivo: it is the relative decrease from the control value, in per cent. By Ki is commonly meant a measure of affinity in units of concentration, obtained from inhibition or displacement. Higher therefore signals weaker binding. As to `CCCn1c(=O)c2nc(C(C3CC3)C3CC3)[nH]c2n(CCC)c1=O`, the “Na+/K+” value in the experiment with Rattus norvegicus [1] was 1.56; in the experiment on Rattus norvegicus [13], 1.27; in the experiment on Rattus norvegicus [17] it was 1.71. For the same compound, the T/C in the experiment with Rattus norvegicus [2] was 1.45; with Rattus norvegicus [8] it was 2.44; in the experiment on Rattus norvegicus [14], 2.39; in the experiment on Rattus norvegicus [18], 2.69; in the experiment with Rattus norvegicus [19], 2.33; with Rattus norvegicus [20] it was 1.33. In addition, the T/C in the experiment with Rattus norvegicus [21] is listed as 2.16; with Rattus norvegicus [22], 2.2. Further, the UN in the experiment on Rattus norvegicus [3] is 107.6 mg/dL. Besides, the inhibition in vivo at 1 mg/kg in the experiment with Rattus norvegicus [4] is 41%; with Rattus norvegicus [5] it was 45%. Moreover, the figures for the Na in the experiment with Rattus norvegicus [6], in the experiment on Rattus norvegicus [7] and in the experiment with Rattus norvegicus [15] were 0.284 m equiv 6hr-1 100g-1, 0.255 m equiv 6hr-1 100g-1 and 0.35 m equiv 6hr-1 100g-1, respectively. The Ki on Adenosine A2 receptor was 430 nM; on Adenosine receptor A1 [12], 0.99 nM. Also, the Urine volume stood at 1.25 ml 6hr-1 100g-1 with Rattus norvegicus [9], 2.07 ml 6hr-1 100g-1 in the experiment on Rattus norvegicus [11] and 1.83 ml 6hr-1 100g-1 in the experiment with Rattus norvegicus [16]. Further, the Cr in the experiment with Rattus norvegicus [10] came out at 5.43 mg/dL.

As for `CCCn1c(=O)c2nc(C3CC4C=CC3C4)[nH]c2n(CCC)c1=O` (stereo in doubt; 17), the T/C in the experiment on Rattus norvegicus [2] is recorded as 0.89; in the experiment on Rattus norvegicus [8], 2.06; in the experiment on Rattus norvegicus [14], 2.56; with Rattus norvegicus [18], 2.51; in the experiment on Rattus norvegicus [20] it was 0.93; in the experiment on Rattus norvegicus [21], 1.72. In the experiment on Rattus norvegicus [23], this compound displayed a UN of 80.4 mg/dL. Besides, the Ki at Adenosine receptor A1 [24] turned out to be 4.3 nM; at Adenosine A2 receptor it was 480 nM. The inhibition in vivo at 1 mg/kg in the experiment on Rattus norvegicus [25] was 53%; in the experiment with Rattus norvegicus [27], 56%. Further, the Na is listed as 0.233 m equiv 6hr-1 100g-1 in the experiment on Rattus norvegicus [26] and 0.434 m equiv 6hr-1 100g-1 with Rattus norvegicus [30]. The compound further yielded a Cr with Rattus norvegicus [28] of 2.08 mg/dL. The Urine volume with Rattus norvegicus [11] is on record as 2.47 ml 6hr-1 100g-1; in the experiment on Rattus norvegicus [29], 1.32 ml 6hr-1 100g-1. In addition, the “Na+/K+” value in the experiment on Rattus norvegicus [13] is recorded as 0.98.

The record behind these values is ChEMBL document CHEMBL1125524, “Adenosine A1 antagonists. 2. Structure-activity relationships on diuretic activities and protective effects against acute renal failure” (J Med Chem, 1992).
